Assay results reported in article PMC6372667 (Experimental & Molecular Medicine, 2019).
Where two headings read alike, the source gives them in different places.

Tests used:
[1] = target: T1, horse serum BChE (Equus caballus, UniProt P81908); assay: In vitro cholinesterase enzyme assay (Ellman), BChE; type: biochemical
T1 construct: horse serum BChE (EC 3.1.1.8); purchased Sigma-Aldrich Co; host or cells: horse serum
Text: BACE1 (human recombinant β-secretase) ([…]) and the BACE1 FRET (fluorescence resonance energy transfer) assay kit Red were purchased from ThermoFisher Scientific (P2985; Waltham, MA, USA). […] For the cell culture experiment, Dulbecco’s modified Eagle’s medium (DMEM), Opti-MEM, fetal bovine serum (FBS), and penicillin/streptomycin were obtained from Capricorn Scientific (Ebsdorfergrund, Germany). β-secretase inhibitor III (β-SI) was purchased from Calbiochem (Darmstadt, Germany). The protease inhibitor mixture (a mixture of AEBSF, pepstatin A, E-64, bestain, leupeptin, and aprotinin) was purchased from Sigma-Aldrich (St. Louis, MO, USA). Enzyme-linked immunosorbent assay (ELISA) kits for Aβ40 and Aβ42 were obtained from IBL (Kunma, Japan). All chemicals and solvents used were reagent grade, purchased from commercial sources, and used as received.
The inhibitory activities of pterosin derivatives against cholinesterases were measured using the method developed by Ellman et al.[32]. The reaction mixture contained 140 μL of sodium phosphate buffer (pH 8.0), 20 μL of test sample solution (final concentration of the compound 100 μM), and 20 μL of AChE or BChE solution, mixed and incubated for 15 min at room temperature. […] The reactions were initiated following the addition of 10 μL of DTNB and 10 μL of acetyl thiocholine iodide for the AChE assay or butyryl thiocholine chloride for the BChE assay in 96-well microplates, which were incubated for 15 min.

[2] = in vitro; type: in vitro ADME; conditions: for BBB permeation class: classified by Pe, given in words
Description: PAMPA (parallel artificial membrane permeation assay) was used as a high-throughput assay to predict BBB permeation. Porcine polar brain lipid (PBL) was used as an artificial membrane to predict BBB permeation. Initially, the test compound was dissolved in DMSO at 5 mg/mL. This compound stock solution (10 µL) was diluted 200-fold in a universal buffer at pH 7.4 and mixed with a multi 8-channel pipette to obtain the secondary stock solution (final concentration 25 µg/mL). The secondary stock solution (200 µL) was placed in the donor wells. The filter membrane was coated with PBL in dodecane (4 mL volume of 20 mg/mL PBL in dodecane), and 5 µL of BBB-1 lipid solution was spread on PBL by pipette. The acceptor well was filled with […] of Acceptor Sink Buffer. The acceptor filter plate was cautiously positioned on the donor plate to assemble a “sandwich” (comprising an aqueous acceptor, artificial lipid membrane and aqueous donor with test compound on the top, middle and bottom, respectively). The test compound diffuses from the donor well to the acceptor well through the lipid membrane. After 4 h of incubation at pH 7.4 and 25 °C, the concentration of the compound in the acceptor, donor, reference and blank wells was estimated with a UV plate reader, Epoch Microplate Spectrophotometer (BioTek Instruments, Inc., Winooski, VT, USA). […] Samples were analyzed in quadruplets, and the average of the four runs was reported. To monitor the consistency of the analysis set, quality control standards were run with each sample set.
PAMPA-BBB, an in vitro artificial membrane permeability assay for the BBB, is one of the most reliable physicochemical screening tools in the early stage discovery of CNS-targeted drugs. The PAMPA-BBB system models the transcellular passive diffusion of chemicals across the BBB and measures strictly passive transport mechanisms via an artificial lipid membrane on effective permeability (Pe, cm/s).

[3] = system: Mouse neuroblastoma N2a cells stably overexpressing the human APP Swedish mutation (APPswe); assay: Aβ40/Aβ42 sandwich ELISA of conditioned media of APPswe neuroblastoma cells; type: cell-based
Description: Mouse neuroblastoma N2a cells stably overexpressing the human APP Swedish mutation (APPswe) were kindly provided by Dr. Takeshi Iwatsubo (The University of Tokyo). […] To analyze the effect of (2R)-pterosin B or (2R,3R)-pteroside C on APP metabolites, APPswe-containing neuroblastoma cells were cultured up to confluency in DMEM that contained 10 mM butyric acid to drive protein expression in the presence of 12, 60, 250, and 500 μM of (2R)-pterosin B or (2R,3R)-pteroside C for 24 h. β-SI (10 µM) was used as a positive control. The negative control included cells cultured in the absence of test compounds. […] Conditioned medium was collected in 0.5 mM phenylmethylsulfonyl fluoride and subjected to ELISA for the 40-residue peptide Aβ (1–40) (Aβ40) or the 42-residue Aβ (1–42) (Aβ42).
Aβ40 and Aβ42 ELISA was performed according to the manufacturer’s instructions. The assay was conducted in a microplate coated with anti-human Aβ35-40 mouse IgG (1A10) or anti-human Aβ38-42 mouse IgG (44A3), respectively. The microplate was added with 100 μL conditioned media, incubated overnight at 4 °C, and then washed with washing buffer. Horseradish peroxidase-conjugated anti-human Aβ11-28 mouse IgG (82E1) was added into each well, incubated at 4 °C for 1 h, and washed with washing buffer. 3,3′,5,5′-Tetramethylbenzidine as a chromogenic substrate was added to each well and incubated for 30 min. The reaction was stopped by the addition of 100 μL stop solution, and the absorbance at 450 nm was measured using a model 680 microplate reader (Bio-Rad, Hercules, CA).

[4] = system: B16F10 mouse melanoma; assay: MTT cytotoxicity assay, B16F10; type: cell-based; conditions: 24 h
Description: Cytotoxicity was assessed using the MTT assay. Briefly, the cells were seeded into a 96-well plate at a density of 1×10^5 cells per well in 100 µL of corresponding media and incubated at 37 °C in an incubator under 5% CO2 tension for 24 h. The culture media were then replaced with 100 µL of fresh serum-free media in the presence of varied concentrations of pterosin derivatives, and cells were incubated for an additional 24 h. The control was treated with an equal amount of DMSO present in the assay for a 5 mM concentration. Then, 100 µL of MTT solution (0.5 mg/mL in Phosphate Buffered Saline (PBS)) was added to each culture. To measure the proportion of surviving cells, the media were replaced with 100 µL of DMSO 2 h after the administration of MTT solution. The absorbance was measured at 570 nm using a spectrophotometric plate reader (Molecular Devices, Sunnyvale, CA, USA).

T1 sequence (P81908 whole entry): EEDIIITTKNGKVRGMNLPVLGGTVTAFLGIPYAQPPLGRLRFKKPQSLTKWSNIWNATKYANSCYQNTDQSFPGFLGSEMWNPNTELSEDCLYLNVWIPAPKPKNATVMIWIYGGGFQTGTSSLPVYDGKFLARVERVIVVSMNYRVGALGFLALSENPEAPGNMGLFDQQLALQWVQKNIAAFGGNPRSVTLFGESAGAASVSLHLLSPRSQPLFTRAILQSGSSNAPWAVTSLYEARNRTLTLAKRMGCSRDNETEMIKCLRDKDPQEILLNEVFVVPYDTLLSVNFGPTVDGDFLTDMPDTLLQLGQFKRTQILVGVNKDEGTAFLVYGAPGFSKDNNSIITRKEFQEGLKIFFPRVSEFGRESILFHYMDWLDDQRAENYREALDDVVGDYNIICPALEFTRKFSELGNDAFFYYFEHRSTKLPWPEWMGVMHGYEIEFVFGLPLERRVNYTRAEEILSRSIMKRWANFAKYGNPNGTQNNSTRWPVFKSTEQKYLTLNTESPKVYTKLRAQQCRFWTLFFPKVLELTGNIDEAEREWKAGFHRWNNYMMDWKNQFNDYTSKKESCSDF

SMILES: Cc1cc2c(c(C)c1CCOC1OC(CO)C(O)C(O)C1O)C(=O)C(C)C2O [(2R,3R)-Pteroside C, (2R,3R)-pteroside C]
- IC50 ([1]; mean ± S.D. of three experiments, read-out: IC50 BChE): 5.29 ± 0.82 µM
- BBB permeation class ([2]; PAMPA-BBB): very low BBB permeability
- Secretion of Aβ peptides, effect ([3]; 500 μM): significantly decreased
- Secreted Aβ42 peptide, effect ([3]; 500 µM, 24 h, P < 0.05): significantly decreased
- LD50 Based on MTT Assay, B16F10 [4]: >5,000 µM

SMILES: Cc1cc2c(c(C)c1CCO)C(=O)[C@H](C)C2 [(2R)-Pterosin B, (2R)-pterosin B]
- IC50 [1]: 48.1 ± 0.59 µM
- BChE-inhibitory activity fold lower than berberine ([1]; ratio of IC50): ~15 fold
- Pe fold higher than verapamil ([2]; PAMPA-BBB): 1.7 fold
- BBB permeation class ([2]; PAMPA-BBB): high BBB permeation
- Pe fold higher than quercetin ([2]; from log Pe −4.22 versus literature log Pe of quercetin): approximately 600 fold
- Pe fold higher than berberine ([2]; from log Pe −4.22 versus log Pe −5.8 of berberine): approximately 37 fold
- Papp at 4 h, 25 µg/mL ([2]; pig, PAMPA, 4 h, pH 7.4, 25 °C, mean ± SD of quadruple experiments, read-out: PAMPA-BBB permeability Pe): 60.3 ± 9.8 ×10⁻⁶ cm/s
- Secretion of Aβ peptides, effect ([3]; 500 μM): significantly decreased
- Secreted Aβ40 peptides, effect ([3]; 500 µM, 24 h): significantly decreased
- Reduction of Aβ40 peptide secreted into media ([3]; 500 μM, 24 h, P < 0.01): up to 50%
- LD50 Based on MTT Assay, B16F10 [4]: >5,000 µM
